In US8754057B2, “Inhibition of apoptosis-specific eIF-5A(eIF-5A1″) with antisense oligonucleotides and siRNA as anti-inflammatory therapeutics” (Senesco Technologies, Inc., priority 2003, dated 2014):

System: lamina cribrosa cell line #517
Assay: Hoescht staining apoptosis of siRNA-transfected lamina cribrosa cells treated with TNF-α and camptothecin
Type: cell-based, human
Conditions: 72 h after siRNA transfection, 24 h TNF-α plus camptothecin
Description: Lamina cribrosa cell line #517 cells were seeded at 7500 cells per well onto an 8-well culture slide. Three days later the LC cells were transfected with either apoptosis-specific eIF-5A siRNA #1 (SEQ ID NO:30) or control siRNA #5 (SEQ ID NO:34). 72 hours after transfection, the transfected cells were treated with 10 ng/ml TNF-α plus 50 μM camptothecin. Twenty-four hours later the cells were stained with Hoescht 33258 and viewed by fluorescence microscopy using a UV filter. Cells with brightly stained condensed or fragmented nuclei were counted as apoptotic. The results of two independent experiments are represented here.
Small inhibitory RNAs (siRNAs) directed against human apoptosis-specific eIF-5A were used to specifically suppress expression of eIF5A in lamina cribrosa cells. Six siRNAs were generated by in vitro transcription using the Silencer™ siRNA Construction Kit (Ambion Inc.), Four siRNAs were generated against human apoptosis-specific eIF-5A (siRNAs #1 to #4). […] The siRNAs were generated according to the manufacturer's protocol. […]
Transfected cells that had been treated with TNF-α and camptothecin for 24 hours were stained with Hoescht 33258 in order to determine the percentage of cells undergoing apoptosis. […] Cells with brightly stained or fragmented nuclei were scored as apoptotic. A minimum of 200 cells were counted per well. […]

siRNA #1: siRNA against human apoptosis-specific eIF-5A (SEQ ID NO:30); target 5′ AAAGGAATGACTTCCAGCTGA 3′ (SEQ ID NO: 81) (AAAGGAAUGACUUCCAGCUGATT; RNA, all phosphodiester, T or U not given here; listed as Homo sapiens)
reduce apoptosis of the LC line #517: 53%
